In US20260234123A1, “Inhibitors of NLRP3” (Mwyngil Therapeutics, Inc., priority 2023, published 2026) one finds EC50 data, which are given here for 17 compounds.

One may read the EC50 as the concentration giving half of the maximal effect.

The subject of the assay is IL1b release THP-1. The assay can be described thus: IL1b release THP-1 (ELISA). It is filed as cell-based. Conditions: Homo sapiens; average EC50; THP-1 cells primed with 1 μg/ml LPS 4 h, stimulated with 10 μM Nigericin 2 h; IL-1β in supernatant by ELISA; read-out: THP 1 IL 1b, EC50. The method in brief: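 THP-1 cells in serum-free medium were primed with 1 μg/ml LPS for 4 h, then stimulated with 10 μM nigericin for 2 h at 37° C., 5% CO2. IL-1β in supernatant measured by ELISA; EC50 values binned into A–E ranges.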
A general note: An ELISA detects its analyte on a solid surface through an enzyme-linked reagent.

Regarding `Cc1cc(N[C@@H]2CCCN(C(C)C)C2)nnc1-c1ccc(C(F)(F)F)cc1NC(=O)C(F)(F)F` [Compound 117, (R)-2,2,2-Trifluoro-N-(2-(6-((1-isopropylpiperidin-3-yl)amino)-4-methylpyridazin-3-yl)-5-(trifluoromethyl)phenyl) acetamide], the EC50 was less than 500 nM.
As to `Cc1cc(-c2ccc(C(F)(F)F)cc2N)nnc1N[C@@H]1CCCN(C(C)C)C1` [Compound 118, 6-[2-amino-4-(trifluoromethyl)phenyl]-N-[(3R)-1-isopropyl-3-piperidyl]-4-methyl-pyridazin-3-amine], the EC50 was less than 500 nM.
Take `CNc1cc(C(F)(F)F)ccc1-c1cc(C)c(N[C@@H]2CCCN(C(C)C)C2)nn1` [Compound 119, N-[(3R)-1-isopropyl-3-piperidyl]-4-methyl-6-[2-(methylamino)-4-(trifluoromethyl)phenyl]pyridazin-3-amine]: the 50% effective concentration (EC50) was less than 500 nM.
Regarding `Cc1cc(-c2ccc(C(F)(F)F)cc2NC(=O)C(F)F)nnc1N[C@@H]1CCCN(C(C)C)C1` [Compound 120], the EC50 is less than 500 nM.
The result for `Cc1cc(-c2ccc(C(F)(F)F)cc2Nc2ccccc2)nnc1N[C@@H]1CCCN(C(C)C)C1` [Compound 121, 6-[2-anilino-4-(trifluoromethyl)phenyl]-N-[(3R)-1-isopropyl-3-piperidyl]-4-methyl-pyridazin-3-amine] reads 500 to 1000 nM; that for `Cc1cc(N[C@@H]2CCCN(C(C)C)C2)nnc1-c1ccc(C(F)(F)F)cc1NC(F)(F)F` [Compound 122, N-[(3R)-1-isopropyl-3-piperidyl]-5-methyl-6-[4-(trifluoromethyl)-2-(trifluoromethylamino)phenyl]-pyridazin-3-amine], 500 to 1000 nM.
To `Cc1cc(N[C@@H]2CCCN(C(C)C)C2)nnc1-c1ccc(C(F)(F)F)cc1NC(=O)C(F)(F)C(F)(F)F` [Compound 123, (R)-2,2,3,3,3-Pentafluoro-N-(2-(6-((1-isopropylpiperidin-3-yl)amino)-4-methylpyridazin-3-yl)-5-(trifluoromethyl)phenyl) propanamide] belongs 1000 to 5000 nM; to `Cc1cc(-c2ccc(C(F)(F)F)cc2NC(=O)C(F)(F)C(F)(F)F)nnc1N[C@@H]1CCCN(C(C)C)C1` [Compound 125, 2,2,3,3,3-pentafluoro-N-[2-[6-[[(3R)-1-isopropyl-3-piperidyl]amino]-5-methyl-pyridazin-3-yl]-5-(trifluoromethyl)phenyl]propanamide], 1000 to 5000 nM; to `CCN1CCC[C@@H](Nc2cc(C)c(-c3ccc(C(F)(F)F)cc3N)nn2)C1` [Compound 130, (R)-6-(2-Amino-4-(trifluoromethyl)phenyl)-N-(1-ethylpiperidin-3-yl)-5-methylpyridazin-3-amine], less than 500 nM.
With `CCN1CCC[C@@H](Nc2nnc(-c3ccc(C(F)(F)F)cc3N)cc2C)C1` [Compound 131, 6-[2-amino-4-(trifluoromethyl)phenyl]-N-[(3R)-1-ethyl-3-piperidyl]-4-methyl-pyridazin-3-amine], the half-maximal effective concentration (EC50) was less than 500 nM.
For the compound `Cc1cc(N[C@@H]2CCCN(C(C)C)C2)nnc1-c1ccc(C(F)(F)F)cc1NC(=O)C(C)C` [Compound 132, (R)—N-(2-(6-((1-Isopropylpiperidin-3-yl)amino)-4-methylpyridazin-3-yl)-5-(trifluoromethyl)phenyl) isobutyramide], the EC50 was less than 500 nM.
In the case of `CCN1CCC[C@@H](Nc2nnc(-c3ccc(C(F)(F)F)cc3NC(C)=O)cc2C)C1` [Compound 133, N-[2-[6-[[(3R)-1-ethyl-3-piperidyl]amino]-5-methyl-pyridazin-3-yl]-5-(trifluoromethyl)phenyl]acetamide], the EC50 was in the range of 500 to 1000 nM.
The result for `CCN1CCC[C@@H](Nc2cc(C)c(-c3ccc(C(F)(F)F)cc3NC(C)=O)nn2)C1` [Compound 134, (R)—N-(2-(6-((1-ethylpiperidin-3-yl)amino)-4-methylpyridazin-3-yl)-5-(trifluoromethyl)phenyl) acetamide] reads 500 to 1000 nM; that for `Cc1cc(-c2ccc(C(F)(F)F)cc2NC(=O)C(C)(C)C)nnc1N[C@@H]1CCCN(C(C)C)C1` [Compound 135, N-[2-[6-[[(3R)-1-isopropyl-3-piperidyl]amino]-5-methyl-pyridazin-3-yl]-5-(trifluoromethyl)phenyl]-2,2-dimethyl-propanamide], 500 to 1000 nM.
To `CC(=O)Nc1cc(C(F)(F)F)ccc1-c1nnc(N[C@@H]2CCCN(C(C)C)C2)cc1C` [Compound 136, N-[2-[6-[[(3R)-1-isopropyl-3-piperidyl]amino]-4-methyl-pyridazin-3-yl]-5-(trifluoromethyl)phenyl]acetamide] belongs 500 to 1000 nM.
To `CC(=O)Nc1cc(C(F)(F)F)ccc1-c1cc(C)c(N[C@@H]2CCCN(C(C)C)C2)nn1` [Compound 137, N-[2-[6-[[(3R)-1-isopropyl-3-piperidyl]amino]-5-methyl-pyridazin-3-yl]-5-(trifluoromethyl)phenyl]acetamide] belongs 1000 to 5000 nM.
Turning to `Cc1cc(N[C@@H]2CCCN(C(C)C)C2)nnc1-c1ccc(C(F)(F)F)cc1NC(=O)C(C)(C)C` [Compound 138, N-[2-[6-[[(3R)-1-isopropyl-3-piperidyl]amino]-4-methyl-pyridazin-3-yl]-5-(trifluoromethyl)phenyl]-2,2-dimethyl-propanamide], the half-maximal effective concentration (EC50) lay within 1000 to 5000 nM.
